test: Metabolic stability test (microsomal metabolism test); assay type: in vitro ADME; conditions: pH 7.4; human-derived liver microsomes, test compound remaining after addition of NADP+ and incubation at 37°C for 30 minutes; read-out: metabolic stability of T/C%
Method: (Test Example 3 Metabolic stability test) 100 µL of 100 mM phosphate buffer solution (pH 7.4) containing 3 µM test compound was added to 100 µL of reaction solution containing 100 mM phosphate buffer solution (pH 7.4), 30 mM glucose 6-phosphate, 10 mM MgCl2·6H2O, 3 units/mL glucose 6-phosphate 1-dehydrogenase, and 0.3 to 1.5 mgP/mL human liver microsomes and the mixture was incubated at 37°C for 20 minutes. Then, 70 µL of 100 mM phosphate buffer solution (pH 7.4) containing 3 mM NADP^+ was added and the mixture was incubated at 37°C for 30 minutes to conduct a microsomal metabolism test. The metabolic stability was calculated according to the following formula: T/C (%) = ((concentration of test compound after addition of NADP)^+and incubation for30minutes)/((concentration of test compound before addition of NADP)^+) × 100. [formula] […]

Compound | remaining at 0.5 h
CC(C)C1=C(C(=O)N2[C@H](C)CC[C@H]2C(=O)N2CCNC3(CC3)C2)SC2=N[C@@](C)(c3ccc(Cl)nc3)[C@@H](c3ccc(Cl)c(Cl)c3)N21 [Example 31, 7-[(5R)-1-{[(5R,6S)-6-(6-chloropyridin-3-yl)-5-(3,4-dichlorophenyl)-3-isopropyl-6-methyl-5,6-dihydroimidazo[2,1-b][1,3]thiazol-2-yl]carbonyl}-5-methyl-L-prolyl]-4,7-diazaspiro [2.5] octane] | ≥ 50%
CC[C@@H]1CC[C@@H](C(=O)N2CCNC3(CC3)C2)N1C(=O)C1=C(C(C)C)N2C(=N[C@@](C)(c3ccc(Cl)nc3)[C@H]2c2ccc(Cl)c(F)c2)S1 [Example 32, 7-[(5R)-1-{[(5R,6S)-5-(4-chloro-3-fluorophenyl)-6-(6-chloropyridin-3-yl)-3-isopropyl-6-methyl-5,6-dihydroimidazo[2,1-b][1,3]thiazol-2-yl]carbonyl}-5-ethyl-L-prolyl]-4,7-diazaspiro[2.5]octane] | ≥ 50%
CC[C@@H]1CC[C@@H](C(=O)N2CCN(C)C3(CC3)C2)N1C(=O)C1=C(C(C)C)N2C(=N[C@@](C)(c3ccc(Cl)nc3)[C@H]2c2ccc(Cl)c(F)c2)S1 [Example 33, 7-[(5R)-1-{[(5R,6S)-5-(4-chloro-3-fluorophenyl)-6-(6-chloropyridin-3-yl)-3-isopropyl-6-methyl-5,6-dihydroimidazo[2,1-b][1,3]thiazol-2-yl]carbonyl}-5-ethyl-L-prolyl]-4-methyl-4,7-diazaspiro[2.5]octane] | ≥ 50%
CC(C)C1=C(C(=O)N2[C@H](CF)CC[C@H]2C(=O)N2CCNC3(CC3)C2)SC2=N[C@@](C)(c3ccc(Cl)cc3)[C@@H](c3ccc(Cl)cc3)N21 [Example 38, 7-[(5S)-1-{[(5R,6S)-5,6-bis(4-chlorophenyl)-3-isopropyl-6-methyl-5,6-dihydroimidazo[2,1-b][1,3]thiazol-2-yl]carbonyl}-5-(fluoromethyl)-L-prolyl]-4,7-diazaspiro[2.5]octane] | ≥ 50%
CC(C)C1=C(C(=O)N2[C@H](CF)CC[C@H]2C(=O)N2CCN(C)C3(CC3)C2)SC2=N[C@@](C)(c3ccc(Cl)cc3)[C@@H](c3ccc(Cl)cc3)N21 [Example 39, 7-[(5S)-1-{[(5R,6S)-5,6-bis(4-chlorophenyl)-3-isopropyl-6-methyl-5,6-dihydroimidazo[2,1-b][1,3]thiazol-2-yl]carbonyl}-5-(fluoromethyl)-L-prolyl]-4-methyl-4,7-diazaspiro[2.5]octane] | ≥ 50%
CC(C)C1=C(C(=O)N2[C@H](CF)CC[C@H]2C(=O)N2CCNC3(CC3)C2)SC2=N[C@@](C)(c3ccc(Cl)nc3)[C@@H](c3ccc(Cl)c(F)c3)N21 [Example 40, 7-[(5S)-1-{[(5R,6S)-5-(4-chloro-3-fluorophenyl)-6-(6-chloropyridin-3-yl)-3-isopropyl-6-methyl-5,6-dihydroimidazo[2,1-b][1,3]thiazol-2-yl]carbonyl}-5-(fluoromethyl)-L-prolyl]-4,7-diazaspiro[2.5]octane] | ≥ 50%
CC(C)C1=C(C(=O)N2[C@H](CF)CC[C@H]2C(=O)N2CCN(C)C3(CC3)C2)SC2=N[C@@](C)(c3ccc(Cl)nc3)[C@@H](c3ccc(Cl)c(F)c3)N21 [Example 41, 7-[(5S)-1-{[(5R,6S)-5-(4-chloro-3-fluorophenyl)-6-(6-chloropyridin-3-yl)-3-isopropyl-6-methyl-5,6-dihydroimidazo[2,1-b][1,3]thiazol-2-yl]carbonyl}-5-(fluoromethyl)-L-prolyl]-4-methyl-4,7-diazaspiro[2.5]octane] | ≥ 50%
CC(C)C1=C(C(=O)N2C(=O)CC[C@H]2C(=O)N2CCNC3(CC3)C2)SC2=N[C@@](C)(c3ccc(Cl)cc3)[C@@H](c3ccc(Cl)cc3)N21 [Example 42, (5S)-1-{[(5R,6S)-5,6-bis(4-chlorophenyl)-3-isopropyl-6-methyl-5,6-dihydroimidazo[2,1-b][1,3]thiazol-2-yl]carbonyl}-5-(4,7-diazaspiro[2.5]oct-7-ylcarbonyl)pyrrolidin-2-one] | ≥ 50%

The next lines start with the values.

remaining at 0.5 h | Compound
≥ 50% | CC(C)C1=C(C(=O)N2C(=O)CC[C@H]2C(=O)N2CCNC3(CC3)C2)SC2=N[C@@](C)(c3ccc(Cl)nc3)[C@@H](c3ccc(Cl)c(F)c3)N21 [Example 44, (5S)-1-{[(5R,6S)-5-(4-chloro-3-fluorophenyl)-6-(6-chloropyridin-3-yl)-3-isopropyl-6-methyl-5,6-dihydroimidazo[2,1-b][1,3]thiazol-2-yl]carbonyl}-5-(4,7-diazaspiro[2.5]oct-7-ylcarbonyl)pyrrolidin-2-one]
≥ 50% | CC(=O)N1CCN(C(=O)[C@@H]2CCC(=O)N2C(=O)C2=C(C(C)C)N3C(=N[C@@](C)(c4ccc(Cl)nc4)[C@H]3c3ccc(Cl)c(F)c3)S2)CC12CC2 [Example 45, (5S)-5-[(4-acetyl-4,7-diazaspiro[2.5]oct-7-yl)carbonyl]-1-{[(5R,6S)-5-(4-chloro-3-fluorophenyl)-6-(6-chloropyridin-3-yl)-3-isopropyl-6-methyl-5,6-dihydroimidazo[2,1-b][1,3]thiazol-2-yl]carbonyl}pyrrolidin-2-one]
≥ 50% | CCN(C(=O)C1=C(C(C)C)N2C(=N[C@@](C)(c3ccc(Cl)cc3)[C@H]2c2ccc(Cl)cc2)S1)C1(C(=O)N2CCNC3(CC3)C2)CC1 [Example 50, (5R,6S)-5,6-bis(4-chlorophenyl)-N-[1-(4,7-diazaspiro[2.5]oct-7-ylcarbonyl)cyclopropyl]-N-ethyl-3-isopropyl-6-methyl-5,6-dihydroimidazo[2,1-b][1,3] thiazole-2-carboxamide]
≥ 50% | CCN(C(=O)C1=C(C(C)C)N2C(=N[C@@](C)(c3ccc(Cl)cc3)[C@H]2c2ccc(Cl)c(F)c2)S1)C1(C(=O)N2CCNC3(CC3)C2)CC1 [Example 52, (5R,6S)-5-(4-chloro-3-fluorophenyl)-6-(4-chlorophenyl)-N-[1-(4,7-diazaspiro[2.5]oct-7-ylcarbonyl)cyclopropyl]-N-ethyl-3-isopropyl-6-methyl-5,6-dihydroimidazo[2,1-b][1,3]thiazole-2-carboxamide]
≥ 50% | CCN(C(=O)C1=C(C(C)C)N2C(=N[C@@](C)(c3ccc(Cl)nc3)[C@H]2c2ccc(Cl)c(F)c2)S1)C1(C(=O)N2CCNC3(CC3)C2)CC1 [Example 53, (5R,6S)-5-(4-chloro-3-fluorophenyl)-6-(6-chloropyridin-3-yl)-N-[1-(4,7-diazaspiro[2.5]oct-7-ylcarbonyl)cyclopropyl]-N-ethyl-3-isopropyl-6-methyl-5,6-dihydroimidazo[2,1-b][1,3]thiazole-2-carboxamide]
≥ 50% | CCN(C(=O)C1=C(C(C)C)N2C(=N[C@@](C)(c3ccc(Cl)cc3)[C@H]2c2ccc(Cl)cc2)S1)[C@@H](C)C(=O)N1CCNC2(CC2)C1 [Example 54, (5R,6S)-5,6-bis(4-chlorophenyl)-N-[(1S)-2-(4,7-diazaspiro[2.5]oct-7-yl)-1-methyl-2-oxoethyl]-N-ethyl-3-isopropyl-6-methyl-5,6-dihydroimidazo[2,1-b][1,3]thiazole-2-carboxamide]
≥ 50% | CC[C@@H]1CC[C@@H](C(=O)N2C[C@@H](C)NC3(CC3)C2)N1C(=O)C1=C(C(C)C)N2C(=N[C@@](C)(c3ccc(Cl)nc3)[C@H]2c2ccc(Cl)c(F)c2)S1 [Example 55, (5R)-7-[(5R)-1-{[(5R,6S)-5-(4-chloro-3-fluorophenyl)-6-(6-chloropyridin-3-yl)-3-isopropyl-6-methyl-5,6-dihydroimidazo[2,1-b][1,3]thiazol-2-yl]carbonyl}-5-ethyl-L-prolyl]-5-methyl-4,7-diazaspiro[2.5]octane]
≥ 50% | CC[C@@H]1CC[C@@H](C(=O)N2CC3(CC3)NC[C@@H]2C)N1C(=O)C1=C(C(C)C)N2C(=N[C@@](C)(c3ccc(Cl)nc3)[C@H]2c2ccc(Cl)c(F)c2)S1 [Example 56, (6S)-7-[(5R)-1-{[(5R,6S)-5-(4-chloro-3-fluorophenyl)-6-(6-chloropyridin-3-yl)-3-isopropyl-6-methyl-5,6-dihydroimidazo[2,1-b][1,3]thiazol-2-yl]carbonyl}-5-ethyl-L-prolyl]-6-methyl-4,7-diazaspiro[2.5]octane]
≥ 50% | CC(C)C1=C(C(=O)N2CCC[C@H]2C(=O)N2CC3(CC3)NC[C@@H]2C)SC2=N[C@@](C)(c3ccc(Cl)nc3)[C@@H](c3ccc(Cl)c(F)c3)N21 [Example 57, (6S)-7-(1-{[(5R,6S)-5-(4-chloro-3-fluorophenyl)-6-(6-chloropyridin-3-yl)-3-isopropyl-6-methyl-5,6-dihydroimidazo[2,1-b][1,3]thiazol-2-yl]carbonyl}-L-prolyl)-6-methyl-4,7-diazaspiro[2.5]octane]
≥ 50% | CC[C@H]1CNC2(CC2)CN1C(=O)[C@@H]1CC[C@@H](C)N1C(=O)C1=C(C(C)C)N2C(=N[C@@](C)(c3ccc(Cl)nc3)[C@H]2c2ccc(Cl)c(F)c2)S1 [Example 58, (6S)-7-[(5R)-1-{[(5R,6S)-5-(4-chloro-3-fluorophenyl)-6-(6-chloropyridin-3-yl)-3-isopropyl-6-methyl-5,6-dihydroimidazo[2,1-b][1,3]thiazol-2-yl]carbonyl}-5-methyl-L-prolyl]-6-ethyl-4,7-diazaspiro[2.5]octane]
≥ 50% | CC[C@@H]1CNC2(CC2)CN1C(=O)[C@@H]1CC[C@@H](C)N1C(=O)C1=C(C(C)C)N2C(=N[C@@](C)(c3ccc(Cl)nc3)[C@H]2c2ccc(Cl)c(F)c2)S1 [Example 59, (6R)-7-[(5R)-1-{[(5R,6S)-5-(4-chloro-3-fluorophenyl)-6-(6-chloropyridin-3-yl)-3-isopropyl-6-methyl-5,6-dihydroimidazo[2,1-b][1,3]thiazol-2-yl]carbonyl}-5-methyl-L-prolyl]-6-ethyl-4,7-diazaspiro[2.5]octane]

From EP2298778A1, “IMIDAZOTHIAZOLE DERIVATIVE HAVING 4,7-DIAZASPIROÝ2.5¨OCTANE RING STRUCTURE” (Daiichi Sankyo Company, Limited, priority 2008, dated 2009)
